According to patent US20260374766A1, “METHODS FOR TREATING CANCER” (Antares Therapeutics, Inc., priority 2022, published 2026):
Where two headings read alike, the source gives them in different places.

Legend:
[1] = target: T1, p53 Y220C mutant protein (amino acid residues 94-293) (Homo sapiens, UniProt P04637, Y220C); test: Thermal Shift Assay (TSA), dTM; type: binding; details: for ΔTm at 100 µM: 100 uM compound; for ΔTm at 10 µM: 10 uM compound
T1 construct: p53 Y220C mutant protein (amino acid residues 94-293)
Method in brief: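 5 μM protein + 10 μM or 100 μM cpd, 3 h, 20 °C; 20 mM HEPES pH7.4, 100 mM NaCl, 0.01% Pluronic F-127, 1% DMSO, Sypro Orange 400-fold dil. Ramp 30→50 °C, 0.03 °C/s. TM by Boltzmann two-state fit.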

p53 Y220C = p53 Y220C (Homo sapiens, UniProt P04637, Y220C); test: Luciferase Reporter Assay (Luc), p53 response element, NClH1299 cells with inducible p53 Y220C; type: cell-based; details: luciferase reporter, NClH1299 inducible p53 Y220C, 6 hour; for AC50: read-out: Luc P53 Y220C AC50
Method in brief: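 Steps: seed 5,000 cells/well; induce mutant p53 with 0.5 ug/mL doxycycline for 24 h; treat with compound 6 h; add equal volume One-Glo, shake 5 min at room temperature; measure luciferase immediately.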

NUGC3 p53 Y220C = test: Cell Proliferation Assay (CellTiter-Glo, CTG), NUGC3 p53 Y220C; type: cell-based; details: Homo sapiens, NUGC-3, 120 h, CellTiter-Glo, 5 days
Method in brief: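 NClH1299 lines stably transduced with Tet-inducible p53 Y220C or R273H, plus NUGC3, were treated with compound for 5 days at 250-500 cells/well. IC50 derived from CellTiter-Glo luminescent signal after 10 min room-temperature incubation.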

H1299 p53 R273H = test: Cell Proliferation Assay (CellTiter-Glo, CTG), H1299 p53 R273H (NClH1299-inducible p53 R273H); type: cell-based; details: Homo sapiens, NCI-H1299, 120 h, CellTiter-Glo, 5 days
Method in brief: (§1)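 Cells seeded at 250-500 per well and exposed to compound for 5 days. Viability read by CellTiter-Glo luminescence after 10 min at room temperature; IC50 calculated. H1299 lines carry Tet-One inducible p53 mutant constructs introduced by lentiviral transduction.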

[2] = target: T1, p53 Y220C mutant protein (amino acid residues 94-293); test: Surface Plasmon Resonance (SPR) assay, Kd_kinetic; type: binding; details: SPR, p53 Y220C, read-out: SPR P53 Y220C KD kinetic
Method in brief: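 Binding measured by SPR on a Biacore 8K in running buffer of 50 mM Tris pH 7.5, 100 mM NaCl, 1 mM DTT, 0.01% Brij35, 0.05% Tween-20, 1% DMSO.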

H1299 p53 Y220C = test: Cell Proliferation Assay (CellTiter-Glo, CTG), H1299 p53 Y220C (NClH1299-inducible p53 Y220C); type: cell-based; details: Homo sapiens, NCI-H1299, 120 h, CellTiter-Glo, 5 days
Method in brief: as §1

[3] = thermal shift, read-out: TSA P53 Y220C dTM (100 uM)
[4] = 10 uM tool compound as positive control
[5] = thermal shift, read-out: TSA P53 Y220C dTM (10 uM)
[6] = p53 Y220C, read-out: TSA P53 Y220C dTM
[7] = NClH1299-inducible p53 R273H cells
[8] = NClH1299-inducible p53 Y220C cells

| Compound | ΔTm at 100 µM [1, 3] | Emax (p53 Y220C; [4]) | AC50 (p53 Y220C) | IC50 (H1299 p53 R273H; H1299 p53 R273H) | Kd ([2]; kinetic KD) | IC50 (H1299 p53 Y220C; H1299 p53 Y220C) | ΔTm at 10 µM [1, 5] | ΔTm at 10 µM [1, 6] | AC50 (p53 Y220C; AC50) | Emax (p53 Y220C; Emax) | IC50 (H1299 p53 R273H; [7]) | Kd [2] | IC50 (H1299 p53 Y220C; [8]) | ΔTm at 100 µM [1, 6] | IC50 (NUGC3 p53 Y220C; NUGC3 p53 Y220C) | IC50 (NUGC3 p53 Y220C; NUGC3 cells) |
| --- | --- | --- | --- | --- | --- | --- | --- | --- | --- | --- | --- | --- | --- | --- | --- | --- |
| COc1cc(S(C)(=O)=O)ccc1NCC#Cc1nc2c(NC3CCOCC3)cccn2c1CC(F)(F)F [Example 3, 2-{3-[(4-methanesulfonyl-2-methoxyphenyl)amino]prop-1-yn-1-yl}-N-(oxan-4-yl)-3-(2,2,2-trifluoroethyl)imidazo[1,2-a]pyridin-8-amine] | ≥ 10 °C | 70 to 80% | 1500 to 3000 nM | ≥ 10000 nM | 10 to 100 nM | 1500 to 3000 nM | – | – | – | – | – | – | – | – | > 3000 nM | – |
| COc1cc2c(cc1NCC#Cc1nc3c(N[C@@H]4CCN(C)C[C@@H]4F)cccn3c1SC(F)(F)F)CNC2=O [Example 96, 5-{[3-(8-{[(3S,4R)-3-fluoro-1-methylpiperidin-4-yl]amino}-3-[(trifluoromethyl)sulfanyl]imidazo[1,2-a]pyridin-2-yl)prop-2-yn-1-yl]amino}-6-methoxy-2,3-dihydroisoindol-1-one] | ≥ 10 °C | 80 to 90% | < 750 nM | 5000 to 8000 nM | < 10 nM | < 750 nM | ≥ 10 °C | – | – | – | – | – | – | – | < 750 nM | – |
| CNC(=O)c1ccc(NCC#Cc2nc3c(N[C@@H]4CCC(=O)NC4)cccn3c2SC(F)(F)F)c(OC)c1 [Example 182] | 5 to 10 °C | 80 to 90% | 1500 to 3000 nM | ≥ 10000 nM | 10 to 100 nM | 1500 to 3000 nM | 5 to 10 °C | – | – | – | – | – | – | – | 1500 to 3000 nM | – |
| CNC(=O)c1ccc(NCC#Cc2nc3c(N[C@H]4C[C@@H]5CC[C@@H](N5)[C@H]4F)cccn3c2SC(F)(F)F)c(OC)c1 [Example 201] | ≥ 10 °C | 80 to 90% | < 750 nM | 5000 to 8000 nM | < 10 nM | < 750 nM | ≥ 10 °C | – | – | – | – | – | – | – | < 750 nM | – |
| CN1CC[C@@H](Nc2cccn3c(CC(F)(F)F)c(C#CCNc4ccccc4)nc23)[C@@H](F)C1 [Example 112, (3S,4R)-3-fluoro-1-methyl-N-{2-[3-(phenylamino)prop-1-yn-1-yl]-3-(2,2,2-trifluoroethyl)imidazo[1,2-a]pyridin-8-yl}piperidin-4-amine] | 5 to 10 °C | 70 to 80% | > 3000 nM | ≥ 10000 nM | 100 to 1000 nM | > 3000 nM | – | – | – | – | – | – | – | – | > 3000 nM | – |
| CNC(=O)c1ccc(OC)c(NCC#Cc2nn3c(N[C@@H]4C[C@H]5CC[C@H](N5)[C@@H]4F)cccc3c2SC(F)(F)F)c1 [Example 269] | – | – | – | – | – | – | – | ≥ 10 °C | < 750 nM | 70 to 80% | < 5000 nM | < 10 nM | < 750 nM | 5 to 10 °C | – | < 750 nM |

More lines, main results first:

| ΔTm at 100 µM [1, 3] | Emax (p53 Y220C; [4]) | AC50 (p53 Y220C) | IC50 (H1299 p53 R273H; H1299 p53 R273H) | Kd ([2]; kinetic KD) | IC50 (H1299 p53 Y220C; H1299 p53 Y220C) | ΔTm at 10 µM [1, 5] | ΔTm at 10 µM [1, 6] | AC50 (p53 Y220C; AC50) | Emax (p53 Y220C; Emax) | IC50 (H1299 p53 R273H; [7]) | Kd [2] | IC50 (H1299 p53 Y220C; [8]) | ΔTm at 100 µM [1, 6] | Compound | IC50 (NUGC3 p53 Y220C; NUGC3 p53 Y220C) | IC50 (NUGC3 p53 Y220C; NUGC3 cells) |
| --- | --- | --- | --- | --- | --- | --- | --- | --- | --- | --- | --- | --- | --- | --- | --- | --- |
| ≥ 10 °C | > 90% | < 750 nM | 5000 to 8000 nM | < 10 nM | < 750 nM | – | – | – | – | – | – | – | – | CNC(=O)c1ccc(NCC#Cc2nc3c(N[C@@H]4CCN(C)C[C@@H]4F)cccn3c2SC(F)(F)F)c(OC)n1 [Example 93, 5-{[3-(8-{[(3S,4R)-3-fluoro-1-methylpiperidin-4-yl]amino}-3-[(trifluoromethyl)sulfanyl]imidazo[1,2-a]pyridin-2-yl)prop-2-yn-1-yl]amino}-6-methoxy-N-methylpyridine-2-carboxamide] | < 750 nM | – |
| ≥ 10 °C | 70 to 80% | < 750 nM | ≥ 10000 nM | < 10 nM | < 750 nM | ≥ 10 °C | – | – | – | – | – | – | – | CNC(=O)c1ccc(NCC#Cc2nc3c(N[C@@H]4CNC[C@@H]4F)cccn3c2SC(F)(F)F)c(OC)c1 [Example 102, 4-{[3-(8-{[(3R,4S)-4-fluoropyrrolidin-3-yl]amino}-3-[(trifluoromethyl)sulfanyl]imidazo[1,2-a]pyridin-2-yl)prop-2-yn-1-yl]amino}-3-methoxy-N-methylbenzamide] | < 750 nM | – |
| – | – | – | – | – | – | – | ≥ 10 °C | < 750 nM | > 90% | ≥ 10000 nM | < 10 nM | < 750 nM | – | CNC(=O)c1ccc(OC[C@@H](C)O)c(NCC#Cc2cc3c(N[C@@H]4CCN(C)C[C@@H]4F)nccn3c2SC(F)(F)F)c1 (single isomer, unassigned) [Example 356] | – | < 750 nM |
| – | > 90% | < 750 nM | ≥ 10000 nM | < 10 nM | < 750 nM | ≥ 10 °C | – | – | – | – | – | – | – | CNC(=O)c1cc(NCC#Cc2cc3c(N[C@@H]4CCN(C)C[C@@H]4F)nccn3c2SC(F)(F)F)c2nccn2c1 [Example 186, 8-{[3-(1-{[(3S,4R)-3-fluoro-1-methylpiperidin-4-yl]amino}-6-[(trifluoromethyl)sulfanyl]pyrrolo[1,2-a]pyrazin-7-yl)prop-2-yn-1-yl]amino}-N-methylimidazo[1,2-a]pyridine-6-carboxamide] | < 750 nM | – |
| – | – | – | – | – | – | – | ≥ 10 °C | < 750 nM | > 90% | ≥ 10000 nM | < 10 nM | < 750 nM | – | CNC(=O)c1ccc(C)c(NCC#Cc2cc3c(N[C@@H]4CCN(C)C[C@@H]4F)nccn3c2SC(F)(F)F)c1 [Example 294] | – | < 750 nM |
| ≥ 10 °C | > 90% | < 750 nM | 8000 to 10000 nM | < 10 nM | < 750 nM | ≥ 10 °C | – | – | – | – | – | – | – | COc1cc(C(N)=O)ccc1NCC#Cc1nc2c(N[C@@H]3CCN(C)C[C@@H]3F)cccn2c1SC(F)(F)F [Example 165] | < 750 nM | – |
| – | > 90% | < 750 nM | ≥ 10000 nM | < 10 nM | < 750 nM | ≥ 10 °C | – | – | – | – | – | – | – | CNC(=O)c1ccc(OC)c(NCC#Cc2cc3c(N[C@@H]4CCN(C)C[C@@H]4F)nccn3c2SC(F)(F)F)n1 [Example 207] | < 750 nM | – |
